Where two headings read alike, the source gives them in different places.

The source of these data is US9650400B2, “Voriconazole sodium phosphate hydrates and polymorphs thereof” (SHAANXI SYNTHETIC PHARMACEUTICAL CO., LTD., priority 2013, dated 2017).

Data set [1] is described as follows: Pharmacokinetic experiments in rabbits (intravenous, equimolar). The settings on record: rabbit. It is filed as in vivo. The protocol: Two rabbits of same body weight were intravenously administered equimolar voriconazole sodium phosphate and voriconazole, respectively, and an equal volume of blood was drawn from the rabbits at different time intervals, and a metabolism status in body was determined.

A short description of data set [2]: Hydroscopicity comparison (moisture absorption, 25° C. and 80% humidity, 24 hours). It is filed as physicochemical.
The format of data set [3] is physicochemical. The procedure: Sample injection was carried out by using a sample prepared by allowing the sample in Example 17 to absorb moisture, and the results are shown in Table 5.
Data set [4] relates to Aspergillus fumigatus. Kind of data set: Diffused aspergillosis in guinea pigs. It is filed as in vivo. The protocol: (§1) In all experiments, particular pathogen-free guinea pigs (body weight of 400-500 g) were used. A conduit was placed in the left jugular vein of the […] infected with Aspergillus fumigatus (4,000 CFU/g body weight) or Candida albicans (4,000 CFU/g body weight) via the lateral veins of penis of the animal or via the implanted conduit. One hour after infection, the animals were subject to an intravenous therapy (5 mg/kg/day). The mean survival time (MST) and the percent survival (% sur) were recorded for each group experimental animals (the number of each group of experimental animals is listed in column “N”) within respective number of days. The amounts of […] in deep tissues (such as liver, spleen, kidney, lung, or brain) were investigated in animals which died during the experiment and in animals which survived the experiment but were later sacrificed in respective groups. “% neg” in Table 1 represents the percent of deep tissues that were culture-negative after treatment.

Data set [5] concerns Candida albicans. Briefly: Diffused candidiasis in guinea pigs. It is filed as in vivo. The settings on record: intravenous 5 mg/kg/day. The protocol: as §1
[6] abbreviates: Aspergillus fumigatus, intravenous 5 mg/kg/day.

Consider `C[C@@H](c1ncncc1F)[C@](O)(Cn1cncn1)c1ccc(F)cc1F` [voriconazole], for which the “parent nucleus (voriconazole) in blood, peak area” value in data set [1] (in vivo, iv, 30 min) worked out at 378.34 peak area; in data set [1] (in vivo, iv, 60 min), 321.69 peak area; in data set [1] (in vivo, iv, 120 min), 150.45 peak area; in data set [1] (in vivo, iv, 150 min) it was 78.35 peak area; in data set [1] (in vivo, iv, 200 min), 29.71 peak area; in data set [1] (in vivo, iv, 250 min), 0.234 peak area.

On to “Voriconazole phosphate anhydrate [reference compound]”, for which the “Sample weight, 0 hour” value in data set [2] is reported as 0.3938 g. Besides, in data set [2] (24 hours), the “Sample weight, 24 hours” value was determined as 0.4627 g and the “hydroscopicity (in words)” value is reported as “significant hydroscopicity”. In data set [3], the “stability under highly humid conditions (in words)” value is on record as “extremely unstable”. In addition, in data set [3] (0 hour), the “Individual impurity, by weight” value is recorded as “Individual impurity 0.07%” and the “Total impurity, by weight” value is “Total impurity 0.10%”.

Regarding voriconazole sodium phosphate, the “metabolism in body (in words)” value in data set [1] (intravenous) is given as “can be metabolized into voriconazole in body”. The “Prodrug in blood, peak area” value in data set [1] (intravenous, 30 min) was 235.92 peak area; in data set [1] (intravenous, 60 min), 143.51 peak area; in data set [1] (intravenous, 120 min) it was 98.59 peak area; in data set [1] (intravenous, 150 min), 2.045 peak area; in data set [1] (intravenous, 200 min) it was 0 peak area; in data set [1] (intravenous, 250 min) it was 0 peak area. Also, the “parent nucleus (voriconazole) in blood, peak area” value in data set [1] (intravenous, 30 min) was 0.324 peak area; in data set [1] (intravenous, 60 min), 86.42 peak area; in data set [1] (intravenous, 120 min), 158.32 peak area; in data set [1] (intravenous, 200 min), 130.38 peak area; in data set [1] (intravenous, 250 min) it was 69.23 peak area. In addition, the “potency against fungal infection (in words)” value in data set [4] (Aspergillus fumigatus or Candida albicans infection, conclusion from Table 7) is “very potent against fungal infection”.

In the case of voriconazole sodium phosphate hydrate, in data set [2], the “Sample weight, 0 hour” value is 0.3318 g. Besides, in data set [2] (24 hours), the “Sample weight, 24 hours” value is reported as 0.3441 g; the “Weight increase by moisture absorption, by weight” value was determined as 3.6%; the “hydroscopicity (in words)” value is given as “mild hydroscopicity”. Moreover, in data set [3] (0 hour), the “Individual impurity, by weight” value is listed as “Individual impurity 0.06%” and the “Total impurity, by weight” value is “Total impurity 0.09%”. Moreover, in data set [3] (24 hour moisture absorption), the “Individual impurity, by weight” value is “Individual impurity 0.08%” and the “Total impurity, by weight” value is “Total impurity 0.13%”. In addition, the “change in impurity after absorbing moisture (in words)” value in data set [3] (24 hours) is “minor change in impurity”. Further, the “MST (mean survival time)” value in data set [4] (Aspergillus fumigatus 4,000 CFU/g body weight, intravenous 5 mg/kg/day) came to 6.2 days. Further, in data set [4] (setting [6]), the “% neg (percent of deep tissues culture-negative after treatment)” value is reported as 70%, the “% sur (percent survival)” value was determined as 66.4% and the “g (liver): CFU/g in culture-positive liver” value is listed as 3.5 mean log 10 CFU/g. In data set [5] (Candida albicans 4,000 CFU/g body weight), the “MST (mean survival time)” value was 9.5 days. In addition, in data set [5] (Candida albicans), the “% neg (percent of deep tissues culture-negative after treatment)” value is listed as 69%, the “% sur (percent survival)” value stood at 76.9% and the “g (liver): CFU/g in culture-positive liver” value stood at 0 mean log 10 CFU/g.
